Results as given in patent US9296741B2, “Bromodomain inhibitors” (priority 2012, dated 2016).
Where two headings read alike, the source gives them in different places.

What was measured:
[1] = biological target: human BRD4 first bromodomain (BDI_K57-E168) (Homo sapiens (Human), UniProt O60885); assay: TR-FRET bromodomain binding assay, BRD4 first bromodomain
[2] = biological target: human BRD4 second bromodomain (BDII_E352-M457) (Homo sapiens (Human), UniProt O60885); assay: TR-FRET bromodomain binding assay, BRD4 second bromodomain
[3] = tested on: breast cancer cell line MX-1; assay: MX-1 cell line proliferation assay; format: cell-based, human; conditions: MX-1 cells, 3-day proliferation, Cell Titer Glo, read-out: Cellular proliferation: EC50
[4] = Human liver microsome stability assay; format: in vitro ADME; conditions: human, microsomes, pH 7.4; for half-life at 0.5 μM: both sexes
[5] = Rat liver microsome stability assay; format: in vitro ADME; conditions: for half-life at 0.5 μM: rat liver microsomes (male Sprague-Dawley), 0.5 μM test compound, 0.25 mg/mL microsomal protein, pH 7.4, 37° C., read-out: Stability in rat liver microsomes (t1/2 in minutes)
[6] = Mouse liver microsome stability assay; format: in vitro ADME; conditions: microsomes, pH 7.4; for half-life at 0.5 μM: male, CD1, mouse
[7] = tested on: LPS induced IL-6 production; assay: LPS (lipopolysaccharide) induced IL-6 production mouse assay; format: in vivo; conditions: 3 mg/kg oral, 1 h before LPS, serum IL-6 2 h after LPS; for inhibition in vivo at 3 mg/kg: Mus musculus, read-out: Inhibition of LPS induced IL-6 production in Mice, % inhibition at 3 mg/kg

| Ki [1] [nM] | Ki [2] [nM] | EC50 ([3]; Homo sapiens, MX1, 72 h) [nM] | half-life at 0.5 μM [4] [min] | half-life at 0.5 μM [5] [min] | half-life at 0.5 μM [6] [min] | EC50 [3] [nM] | Stability in human liver microsomes (t1/2 in minutes) [4] [min] | Stability in rat liver microsomes (t1/2 in minutes) ([5]; rat, microsomes, pH 7.4) [min] | Stability in mouse liver microsomes (t1/2 in minutes) ([6]; mouse) [min] | Structure (SMILES) | inhibition in vivo at 3 mg/kg [7] [%] | Inhibition of LPS induced IL-6 production in Mice, % inhibition at 3 mg/kg [7] [%] |
| --- | --- | --- | --- | --- | --- | --- | --- | --- | --- | --- | --- | --- |
| 20.8 | 13.1 | 65.5 | 42 | 66 | 18 | – | – | – | – | Cn1cc(-c2cc(S(C)(=O)=O)ccc2Oc2ccc(Cl)cc2)c2cc[nH]c2c1=O [Example 154, 4-[2-(4-chlorophenoxy)-5-(methylsulfonyl)phenyl]-6-methyl-1,6-dihydro-7H-pyrrolo[2,3-c]pyridin-7-one] | 73 | – |
| 37 | 20.7 | 62.4 | 89 | 107 | 59 | – | – | – | – | Cn1nc(-c2cc(NS(C)(=O)=O)ccc2Oc2ccc(F)cc2F)c2cc[nH]c2c1=O [Example 159, N-[4-(2,4-difluorophenoxy)-3-(6-methyl-7-oxo-6,7-dihydro-1H-pyrrolo[2,3-d]pyridazin-4-yl)phenyl]methanesulfonamide] | 58 | – |
| 11.1 | 4.6 | 127 | 96 | 41 | 11 | – | – | – | – | Cn1cc(-c2cc(S(C)(=O)=O)ccc2Oc2ccc3ncccc3c2)c2cc[nH]c2c1=O [Example 162, 6-methyl-4-[5-(methylsulfonyl)-2-(quinolin-6-yloxy)phenyl]-1,6-dihydro-7H-pyrrolo[2,3-c]pyridin-7-one] | 41 | – |
| 10.9 | 3.6 | 48.2 | 85 | 23 | 22 | – | – | – | – | Cn1cc(-c2cc(S(C)(=O)=O)ccc2Oc2cccc(N)c2)c2cc[nH]c2c1=O [Example 166, 4-[2-(3-aminophenoxy)-5-(methylsulfonyl)phenyl]-6-methyl-1,6-dihydro-7H-pyrrolo[2,3-c]pyridin-7-one] | 44 | – |
| 5.4 | 1.3 | 27.7 | 66 | 82 | 25 | – | – | – | – | CCS(=O)(=O)c1ccc(Oc2ccc(F)cc2F)c(-c2cn(C)c(=O)c3[nH]ccc23)c1 [Example 168, 4-[2-(2,4-difluorophenoxy)-5-(ethylsulfonyl)phenyl]-6-methyl-1,6-dihydro-7H-pyrrolo[2,3-c]pyridin-7-one] | 70 | – |
| 1.5 | 0.79 | 11.7 | 16 | 15 | 10 | – | – | – | – | CCS(=O)(=O)c1ccc(OC2CCC3(CC2)OCCO3)c(-c2cn(C)c(=O)c3[nH]ccc23)c1 [Example 197, 4-[2-(1,4-dioxaspiro[4.5]dec-8-yloxy)-5-(ethylsulfonyl)phenyl]-6-methyl-1,6-dihydro-7H-pyrrolo[2,3-c]pyridin-7-one] | 59 | – |
| 6.2 | 10.2 | 39.1 | > 120 | 81 | 118 | – | – | – | – | Cn1cc(-c2cc(S(C)(=O)=O)ccc2OC2CCOC2)c2cc[nH]c2c1=O (stereo not shown) [Example 205, 6-methyl-4-[5-(methylsulfonyl)-2-(tetrahydrofuran-3-yloxy)phenyl]-1,6-dihydro-7H-pyrrolo[2,3-c]pyridin-7-one] | 48 | – |
| 3.1 | 1.8 | 25.1 | 102 | 78 | 100 | – | – | – | – | Cn1cc(-c2cc(S(N)(=O)=O)cnc2OCC2CC2)c2cc[nH]c2c1=O [Example 207, 6-(cyclopropylmethoxy)-5-(6-methyl-7-oxo-6,7-dihydro-1H-pyrrolo[2,3-c]pyridin-4-yl)pyridine-3-sulfonamide] | 62 | – |
| 1.8 | 1.3 | – | – | – | – | 7.3 | 69 | 67 | 53 | CCS(=O)(=O)c1ccc(OC2CCC(C)(O)CC2)c(-c2cn(C)c(=O)c3[nH]ccc23)c1 (stereo not drawn) [Example 212, 4-{5-(ethylsulfonyl)-2-[(trans-4-hydroxy-4-methylcyclohexyl)oxy]phenyl}-6-methyl-1,6-dihydro-7H-pyrrolo[2,3-c]pyridin-7-one] | – | 47 |
| 3.7 | 6.7 | 6.3 | 33 | > 120 | 72 | – | – | – | – | Cn1cc(-c2cc(S(C)(=O)=O)ccc2OCC2(C)CC2)c2cc[nH]c2c1=O [Example 231, 6-methyl-4-{2-[(1-methylcyclopropyl)methoxy]-5-(methylsulfonyl)phenyl}-1,6-dihydro-7H-pyrrolo[2,3-c]pyridin-7-one] | 51 | – |
| 1.1 | 0.78 | 3.3 | 103 | > 120 | 63 | – | – | – | – | Cn1cc(-c2cc(S(N)(=O)=O)ccc2NCC2CC2)c2cc[nH]c2c1=O [Example 238, 4-[(cyclopropylmethyl)amino]-3-(6-methyl-7-oxo-6,7-dihydro-1H-pyrrolo[2,3-c]pyridin-4-yl)benzenesulfonamide] | 69 | – |
| 2 | 2.8 | 11.5 | > 120 | > 120 | 47 | – | – | – | – | CCS(=O)(=O)c1ccc(OCC2CC2(F)F)c(-c2cn(C)c(=O)c3[nH]ccc23)c1 (stereo not shown) [Example 240, 4-{2-[(2,2-difluorocyclopropyl)methoxy]-5-(ethylsulfonyl)phenyl}-6-methyl-1,6-dihydro-7H-pyrrolo[2,3-c]pyridin-7-one] | 62 | – |
| 36.5 | 5.8 | 289 | > 120 | 86 | > 120 | – | – | – | – | Cn1cc(-c2cc(S(N)(=O)=O)cnc2Oc2ccc(F)cc2F)c2cc[nH]c2c1=O [Example 242, 6-(2,4-difluorophenoxy)-5-(6-methyl-7-oxo-6,7-dihydro-1H-pyrrolo[2,3-c]pyridin-4-yl)pyridine-3-sulfonamide] | 46 | – |
| 2.5 | 3.7 | 26.9 | 32 | 24 | 12 | – | – | – | – | CN(C)S(=O)(=O)c1cnc(NCC2CC2)c(-c2cn(C)c(=O)c3[nH]ccc23)c1 [Example 245, 6-[(cyclopropylmethyl)amino]-N,N-dimethyl-5-(6-methyl-7-oxo-6,7-dihydro-1H-pyrrolo[2,3-c]pyridin-4-yl)pyridine-3-sulfonamide] | 71 | – |
| 1.9 | 1.3 | 26.4 | 13 | 16 | 5 | – | – | – | – | CCS(=O)(=O)c1ccc(O[C@H]2CC[C@@H](OC)CC2)c(-c2cn(C)c(=O)c3[nH]ccc23)c1 [Example 248, 4-{5-(ethylsulfonyl)-2-[(cis-4-methoxycyclohexyl)oxy]phenyl}-6-methyl-1,6-dihydro-7H-pyrrolo[2,3-c]pyridin-7-one] | 82 | – |
| 1 | 1.2 | 6.3 | 34 | 58 | 29 | – | – | – | – | CCS(=O)(=O)c1ccc(O[C@H]2CC[C@H](OC)CC2)c(-c2cn(C)c(=O)c3[nH]ccc23)c1 [Example 260, 4-{5-(ethylsulfonyl)-2-[(trans-4-methoxycyclohexyl)oxy]phenyl}-6-methyl-1,6-dihydro-7H-pyrrolo[2,3-c]pyridin-7-one] | 66 | – |
| 4.4 | 4.2 | 43.6 | 95 | 18 | > 120 | – | – | – | – | CCS(=O)(=O)c1ccc(NC2CC2)c(-c2cn(C)c(=O)c3[nH]ccc23)c1 [Example 267, 4-[2-(cyclopropylamino)-5-(ethylsulfonyl)phenyl]-6-methyl-1,6-dihydro-7H-pyrrolo[2,3-c]pyridin-7-one] | 74 | – |
| 1.2 | 1.3 | 9 | 9 | 12 | 8 | – | – | – | – | CN(C)S(=O)(=O)c1ccc(OCC2CC2)c(-c2cn(C)c(=O)c3[nH]ccc23)c1 [Example 273, 4-(cyclopropylmethoxy)-N,N-dimethyl-3-(6-methyl-7-oxo-6,7-dihydro-1H-pyrrolo[2,3-c]pyridin-4-yl)benzenesulfonamide] | 47 | – |
| 11.4 | 17.1 | 149 | > 120 | 82 | 71 | – | – | – | – | Cn1cc(-c2cc(S(C)(=O)=O)ccc2Oc2ccc(F)cc2F)c2cc(CO)[nH]c2c1=O [Example 276, 4-[2-(2,4-difluorophenoxy)-5-(methylsulfonyl)phenyl]-2-(hydroxymethyl)-6-methyl-1,6-dihydro-7H-pyrrolo[2,3-c]pyridin-7-one] | 25 | – |
